From patent US8729074B2, “Inhibitors of PI3 kinase” (Amgen Inc., priority 2009, dated 2014) come the findings set out here.

A word on the IC50: it is the point on the concentration scale where inhibition reaches its midpoint.

Structures are written as SMILES.

The test relates to phosphorylation of Serine 473 in Akt in HCT 116 cells. Briefly: Cell-based phospho-Akt Ser473 assay (HCT 116 cell). To be noted: Homo sapiens; pAkt Ser473, HCT 116 cells, compound 2 hours, IGF-1 stimulation; average if run more than once; read-out: HCT116 Cell IC50. The text has this:
Cell-Based Phospho-Akt Ser473Assay (HCT 116 Cell)
This assay determines the ability of a compound to inhibit the phosphorylation of Serine 473 in Akt using a MSD based sandwich immunoassay (Meso Scale Detection, Meso Scale Discovery (MSD), Gaithersburg, Md.). HCT 116 human colon carcinoma cell lines can be grown in McCoy's 5A growth medium (GIBCO, Carlsbad, Calif.) containing 10% FBS (GIBCO, Carlsbad, Calif.) and X1 Penicillin-streptomycin-glutamine (GIBCO, Carlsbad, Calif.). Prior to the assay, cells can be detached from the culture flask with trypsin, and re-suspended in complete media to give a final concentration of 1.6×10^5 cells per mL. Aliquots (100 μl) of the HCT116 cell suspension can be seeded into each well of a 96 well tissue culture plate to give a final density of 16,000 cells per well. Cells can then be incubated overnight at 37° C.
The following day the cells can be treated with serially diluted test compounds and incubated for 2 hours at 37° C. The culture media on the HCT 116 cells can be replaced with 189 μL McCoys media, supplemented with 0.1% BSA (ICN Biomedicals, Inc., Costa Mesa, Calif.). Compounds can be prepared as either 10 mM or 0.5 mM stock solutions in DMSO, and serially diluted 3 fold in a 10-point dose-response curve to give final concentrations that are 200-fold greater than the desired final test concentration. […]
25 μL Cell lysate can then be transferred to pre-blocked MSD assay plates pre-coated with a capture antibody specific for Akt, and the plates can be incubated for 2 hours at room temperature. […] An aliquot of 150 μL of diluted MSD read buffer can then be applied to each well, and the electrochemiluminescent signal can be measured using a MSD SECTOR™ plate reader (Meso Scale Discovery, Gaithersburg, Md.). This instrument measures the intensity of emitted light to determine a quantitative measure of phosphorylated Akt in each well. The dose-response data obtained with each compound can be analyzed and the IC50 inhibition of Akt phosphorylation at Ser473 can be calculated. […]
`O=S(=O)(Nc1cc(-c2cnc3ccccn23)cnc1Cl)c1ccc(F)cc1` [Example 3, N-(2-Chloro-5-imidazo[1,2-a]pyridin-3-yl-3-pyridinyl)-4-fluorobenzenesulfonamide]: the IC50 turned out to be 352 nM.
To `Cc1ccn2c(-c3cnc(Cl)c(NS(=O)(=O)c4ccc(F)cc4)c3)cnc2c1` [Example 4, N-(2-Chloro-5-(7-methylimidazo[1,2-a]pyridin-3-yl)-3-pyridinyl)-4-fluorobenzenesulfonamide] belongs 180 nM.
The same measure for `O=S(=O)(Nc1cc(-c2cnc3ccc(Cl)nn23)cnc1Cl)c1ccc(F)cc1` [Example 25, N-(2-Chloro-5-(6-chloroimidazo[1,2-b]pyridazin-3-yl)pyridin-3-yl)-4-fluorobenzenesulfonamide]: 564 nM.
